One test concerns the target Bile salt export pump (Homo sapiens, UniProt O95342). The format is functional.
A further test has as its target T1, Adenosine receptor A3 (Homo sapiens, UniProt P0DMS8).
T1 sequence (P0DMS8 whole entry): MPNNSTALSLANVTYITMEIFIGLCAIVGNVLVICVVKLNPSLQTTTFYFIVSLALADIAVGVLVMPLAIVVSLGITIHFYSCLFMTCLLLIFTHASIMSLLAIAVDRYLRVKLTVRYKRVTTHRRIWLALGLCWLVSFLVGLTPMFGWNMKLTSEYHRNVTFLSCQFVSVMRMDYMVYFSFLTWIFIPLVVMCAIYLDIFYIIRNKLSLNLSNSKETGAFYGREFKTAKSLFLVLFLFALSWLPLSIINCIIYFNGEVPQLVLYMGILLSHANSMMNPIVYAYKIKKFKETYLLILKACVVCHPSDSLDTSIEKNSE

For test [1], the target named is T2, Alpha-2C adrenergic receptor (Homo sapiens, UniProt P18825).
T2 sequence (P18825 whole entry): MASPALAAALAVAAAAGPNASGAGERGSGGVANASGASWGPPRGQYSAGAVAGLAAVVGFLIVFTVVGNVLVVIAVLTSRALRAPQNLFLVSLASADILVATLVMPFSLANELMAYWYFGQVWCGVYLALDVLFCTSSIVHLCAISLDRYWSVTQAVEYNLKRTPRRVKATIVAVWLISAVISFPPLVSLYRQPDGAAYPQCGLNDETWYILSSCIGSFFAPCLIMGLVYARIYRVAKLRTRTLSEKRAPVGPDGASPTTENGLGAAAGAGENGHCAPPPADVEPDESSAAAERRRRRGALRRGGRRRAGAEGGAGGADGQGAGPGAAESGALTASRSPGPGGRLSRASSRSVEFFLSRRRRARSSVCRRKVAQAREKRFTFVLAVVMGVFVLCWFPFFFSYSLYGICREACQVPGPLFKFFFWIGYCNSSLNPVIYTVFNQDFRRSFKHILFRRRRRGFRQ
The format is functional.

Test [2] has as its target Beta-1 adrenergic receptor (Homo sapiens, UniProt P08588). The format is functional.
The target in another test is Vasopressin V1a receptor (Homo sapiens, UniProt P37288).
Sequence of Vasopressin V1a receptor (P37288 whole entry): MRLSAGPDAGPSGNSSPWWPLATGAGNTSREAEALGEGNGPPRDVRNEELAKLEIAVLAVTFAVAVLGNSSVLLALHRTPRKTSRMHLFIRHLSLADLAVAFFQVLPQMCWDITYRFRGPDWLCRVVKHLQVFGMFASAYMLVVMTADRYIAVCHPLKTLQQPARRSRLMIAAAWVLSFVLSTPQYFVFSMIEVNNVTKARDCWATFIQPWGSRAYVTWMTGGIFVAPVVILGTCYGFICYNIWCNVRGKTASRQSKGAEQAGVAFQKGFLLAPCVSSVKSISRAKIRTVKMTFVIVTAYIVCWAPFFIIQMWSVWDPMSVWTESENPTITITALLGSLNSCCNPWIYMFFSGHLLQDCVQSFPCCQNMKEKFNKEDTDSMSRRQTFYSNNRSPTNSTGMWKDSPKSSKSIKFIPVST
For test [3], the target named is T3, Cholecystokinin receptor type A (Homo sapiens, UniProt P32238).
T3 sequence (P32238 whole entry): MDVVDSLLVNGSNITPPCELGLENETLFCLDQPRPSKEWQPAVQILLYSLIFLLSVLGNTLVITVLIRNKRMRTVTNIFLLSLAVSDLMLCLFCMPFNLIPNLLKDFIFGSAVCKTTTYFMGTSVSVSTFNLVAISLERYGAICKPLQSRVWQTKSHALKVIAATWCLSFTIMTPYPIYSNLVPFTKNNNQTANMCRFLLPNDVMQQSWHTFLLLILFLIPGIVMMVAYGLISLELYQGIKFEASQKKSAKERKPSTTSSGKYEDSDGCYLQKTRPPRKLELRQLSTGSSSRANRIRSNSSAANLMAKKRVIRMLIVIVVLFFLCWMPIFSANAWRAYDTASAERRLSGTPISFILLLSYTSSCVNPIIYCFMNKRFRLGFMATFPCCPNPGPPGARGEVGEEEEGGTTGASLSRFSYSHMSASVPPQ

The target of test [4] is Neuronal acetylcholine receptor subunit alpha-4 (Homo sapiens, UniProt P43681).
Sequence of Neuronal acetylcholine receptor subunit alpha-4 (P43681 whole entry): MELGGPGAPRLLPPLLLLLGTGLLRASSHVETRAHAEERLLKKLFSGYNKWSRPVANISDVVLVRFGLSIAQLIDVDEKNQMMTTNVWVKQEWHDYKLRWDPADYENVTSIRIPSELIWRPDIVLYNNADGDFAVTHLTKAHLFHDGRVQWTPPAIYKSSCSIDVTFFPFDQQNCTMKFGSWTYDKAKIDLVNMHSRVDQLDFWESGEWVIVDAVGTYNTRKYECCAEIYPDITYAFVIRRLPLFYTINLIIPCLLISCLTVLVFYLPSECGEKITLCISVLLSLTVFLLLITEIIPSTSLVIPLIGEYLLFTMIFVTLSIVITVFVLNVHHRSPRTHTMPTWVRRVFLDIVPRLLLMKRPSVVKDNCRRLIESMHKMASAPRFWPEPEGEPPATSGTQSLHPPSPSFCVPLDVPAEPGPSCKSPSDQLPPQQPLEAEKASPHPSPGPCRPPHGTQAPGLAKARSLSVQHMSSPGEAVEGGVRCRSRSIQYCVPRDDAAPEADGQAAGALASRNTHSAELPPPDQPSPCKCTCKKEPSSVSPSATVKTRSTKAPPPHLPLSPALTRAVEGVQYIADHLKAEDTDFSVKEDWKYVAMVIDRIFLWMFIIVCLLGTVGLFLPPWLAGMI
Test [5] has as its target 5-hydroxytryptamine receptor 2B (Homo sapiens, UniProt P41595). The format is functional, cell-based.
For test [6], the target named is T4, 5-hydroxytryptamine receptor 2C (Homo sapiens, UniProt P28335).
T4 sequence (P28335 whole entry): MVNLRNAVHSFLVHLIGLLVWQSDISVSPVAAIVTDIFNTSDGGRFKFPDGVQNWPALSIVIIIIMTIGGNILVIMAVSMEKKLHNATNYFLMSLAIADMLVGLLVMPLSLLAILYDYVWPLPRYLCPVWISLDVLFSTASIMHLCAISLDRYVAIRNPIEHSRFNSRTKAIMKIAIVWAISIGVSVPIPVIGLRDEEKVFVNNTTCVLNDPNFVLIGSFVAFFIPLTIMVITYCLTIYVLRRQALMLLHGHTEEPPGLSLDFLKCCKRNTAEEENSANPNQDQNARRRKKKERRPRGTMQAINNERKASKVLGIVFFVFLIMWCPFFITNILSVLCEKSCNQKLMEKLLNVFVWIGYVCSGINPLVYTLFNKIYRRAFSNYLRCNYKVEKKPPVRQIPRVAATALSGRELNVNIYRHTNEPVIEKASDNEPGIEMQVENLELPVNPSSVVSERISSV

Test [7] addresses Sodium-dependent dopamine transporter (Homo sapiens, UniProt Q01959).
For test [8], the target named is T5, Amine oxidase [flavin-containing] A (Homo sapiens, UniProt P21397).
T5 sequence (P21397 whole entry): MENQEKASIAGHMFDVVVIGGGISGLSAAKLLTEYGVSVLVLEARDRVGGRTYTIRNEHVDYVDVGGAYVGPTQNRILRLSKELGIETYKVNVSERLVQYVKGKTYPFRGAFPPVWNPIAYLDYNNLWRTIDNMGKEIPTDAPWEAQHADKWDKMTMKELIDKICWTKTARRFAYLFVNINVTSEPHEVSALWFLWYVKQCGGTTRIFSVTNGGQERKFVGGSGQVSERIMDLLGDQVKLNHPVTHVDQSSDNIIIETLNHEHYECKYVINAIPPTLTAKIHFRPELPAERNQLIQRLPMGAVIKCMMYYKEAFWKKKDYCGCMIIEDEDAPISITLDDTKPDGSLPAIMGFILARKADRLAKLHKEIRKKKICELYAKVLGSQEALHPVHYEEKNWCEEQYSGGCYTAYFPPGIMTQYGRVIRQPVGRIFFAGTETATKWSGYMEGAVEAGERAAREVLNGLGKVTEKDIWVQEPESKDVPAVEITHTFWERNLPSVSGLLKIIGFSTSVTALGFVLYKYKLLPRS
The format is functional.

Structures are written as SMILES.

As a reminder, the AC50 is the midpoint of the concentration-response curve, whichever way the signal moves.
Further: assay procedure not described here.

Sequence of Bile salt export pump (O95342 whole entry): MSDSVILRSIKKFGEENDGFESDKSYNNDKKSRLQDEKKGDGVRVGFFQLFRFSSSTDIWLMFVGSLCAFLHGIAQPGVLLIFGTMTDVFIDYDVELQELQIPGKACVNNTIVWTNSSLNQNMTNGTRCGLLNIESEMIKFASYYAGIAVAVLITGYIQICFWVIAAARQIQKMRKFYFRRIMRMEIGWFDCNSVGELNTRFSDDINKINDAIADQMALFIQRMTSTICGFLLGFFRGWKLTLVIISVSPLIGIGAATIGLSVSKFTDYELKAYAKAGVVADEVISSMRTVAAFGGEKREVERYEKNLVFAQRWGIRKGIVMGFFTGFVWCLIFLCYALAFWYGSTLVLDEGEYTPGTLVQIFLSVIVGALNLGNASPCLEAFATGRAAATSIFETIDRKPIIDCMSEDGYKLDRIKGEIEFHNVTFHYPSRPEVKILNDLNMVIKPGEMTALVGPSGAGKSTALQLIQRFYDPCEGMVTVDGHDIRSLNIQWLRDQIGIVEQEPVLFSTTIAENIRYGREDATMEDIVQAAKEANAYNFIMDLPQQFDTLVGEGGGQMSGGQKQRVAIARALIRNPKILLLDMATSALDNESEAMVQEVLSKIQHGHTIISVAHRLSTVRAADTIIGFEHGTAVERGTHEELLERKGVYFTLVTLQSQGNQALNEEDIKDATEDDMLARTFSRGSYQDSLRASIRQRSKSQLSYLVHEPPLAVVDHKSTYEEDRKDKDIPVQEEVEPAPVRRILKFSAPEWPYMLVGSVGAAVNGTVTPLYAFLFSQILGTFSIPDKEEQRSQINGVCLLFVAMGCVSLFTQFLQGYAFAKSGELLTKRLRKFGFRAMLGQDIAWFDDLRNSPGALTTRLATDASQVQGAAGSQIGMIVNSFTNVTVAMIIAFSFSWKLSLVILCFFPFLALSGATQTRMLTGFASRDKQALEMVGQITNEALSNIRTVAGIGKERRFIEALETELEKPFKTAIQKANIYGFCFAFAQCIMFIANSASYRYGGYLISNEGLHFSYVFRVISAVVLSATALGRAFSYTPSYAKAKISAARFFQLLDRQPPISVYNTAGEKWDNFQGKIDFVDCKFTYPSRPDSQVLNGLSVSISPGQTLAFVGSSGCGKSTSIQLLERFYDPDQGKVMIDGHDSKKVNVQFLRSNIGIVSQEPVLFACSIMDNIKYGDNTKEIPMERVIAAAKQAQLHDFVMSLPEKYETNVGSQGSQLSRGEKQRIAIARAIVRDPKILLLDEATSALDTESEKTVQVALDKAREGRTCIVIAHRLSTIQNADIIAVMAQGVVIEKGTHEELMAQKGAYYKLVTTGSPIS
Sequence of 5-hydroxytryptamine receptor 2B (P41595 whole entry): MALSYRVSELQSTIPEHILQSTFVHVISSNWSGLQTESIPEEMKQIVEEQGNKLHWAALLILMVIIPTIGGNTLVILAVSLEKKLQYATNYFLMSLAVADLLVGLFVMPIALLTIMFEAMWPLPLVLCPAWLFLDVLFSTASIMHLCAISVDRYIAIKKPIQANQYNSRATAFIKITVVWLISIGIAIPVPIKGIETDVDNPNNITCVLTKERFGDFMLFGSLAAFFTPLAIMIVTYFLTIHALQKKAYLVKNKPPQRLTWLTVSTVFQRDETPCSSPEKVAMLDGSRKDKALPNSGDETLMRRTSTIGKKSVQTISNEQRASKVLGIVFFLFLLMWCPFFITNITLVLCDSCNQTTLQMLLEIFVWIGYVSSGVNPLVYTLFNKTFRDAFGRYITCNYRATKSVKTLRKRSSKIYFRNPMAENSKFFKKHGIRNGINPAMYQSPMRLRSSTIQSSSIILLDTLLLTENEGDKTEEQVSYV
Sequence of Beta-1 adrenergic receptor (P08588 whole entry): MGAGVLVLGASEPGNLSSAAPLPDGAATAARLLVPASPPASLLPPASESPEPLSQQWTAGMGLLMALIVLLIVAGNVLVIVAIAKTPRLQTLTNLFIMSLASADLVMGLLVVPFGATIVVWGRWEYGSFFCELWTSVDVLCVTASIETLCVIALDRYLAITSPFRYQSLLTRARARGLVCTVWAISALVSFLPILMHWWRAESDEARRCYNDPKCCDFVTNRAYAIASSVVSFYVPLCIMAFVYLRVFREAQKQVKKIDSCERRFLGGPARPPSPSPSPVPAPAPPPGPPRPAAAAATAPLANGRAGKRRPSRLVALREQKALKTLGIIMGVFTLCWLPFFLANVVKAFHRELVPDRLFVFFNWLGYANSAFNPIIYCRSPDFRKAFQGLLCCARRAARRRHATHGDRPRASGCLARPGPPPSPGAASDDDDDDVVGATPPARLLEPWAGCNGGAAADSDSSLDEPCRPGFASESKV
Sequence of Sodium-dependent dopamine transporter (Q01959 whole entry): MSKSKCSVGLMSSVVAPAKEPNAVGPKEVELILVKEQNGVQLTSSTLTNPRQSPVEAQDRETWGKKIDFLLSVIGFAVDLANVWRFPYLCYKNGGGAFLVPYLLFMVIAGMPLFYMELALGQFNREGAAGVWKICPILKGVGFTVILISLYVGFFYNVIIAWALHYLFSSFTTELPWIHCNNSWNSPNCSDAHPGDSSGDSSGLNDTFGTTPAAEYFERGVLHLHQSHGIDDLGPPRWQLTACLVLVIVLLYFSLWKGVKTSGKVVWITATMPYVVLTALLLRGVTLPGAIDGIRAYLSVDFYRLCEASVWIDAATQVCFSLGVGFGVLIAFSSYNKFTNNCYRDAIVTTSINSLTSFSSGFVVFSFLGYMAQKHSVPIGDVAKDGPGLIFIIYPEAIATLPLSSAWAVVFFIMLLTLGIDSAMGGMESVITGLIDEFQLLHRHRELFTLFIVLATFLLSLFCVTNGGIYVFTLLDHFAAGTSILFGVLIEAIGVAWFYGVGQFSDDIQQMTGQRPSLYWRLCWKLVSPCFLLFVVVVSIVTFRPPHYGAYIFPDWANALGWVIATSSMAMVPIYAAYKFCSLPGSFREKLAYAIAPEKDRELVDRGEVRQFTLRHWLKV

On to `Clc1ccc2nsnc2c1NC1=NCCN1` [TIZANIDINE], for which the AC50 at Bile salt export pump is > 300 µM; at Adenosine receptor A3 it was > 30 µM; in [1], 1.31 µM; in [2] it was > 10 µM; at Vasopressin V1a receptor, > 10 µM; in test [3] it was > 30 µM. In addition, the AC50 is > 10 µM in test [4]; > 30 µM in [5]; > 30 µM in test [6]; > 10 µM in [7]; > 10 µM in [8].

Take `O=C(O[C@H]1C[C@H]2CC[C@@H](C1)[N+]21CCCC1)C(O)(c1ccccc1)c1ccccc1` [TROSPIUM]: the AC50 at Bile salt export pump is > 300 µM; on Adenosine receptor A3, > 30 µM; in test [1] it was > 30 µM; in test [2] it was > 30 µM; at Vasopressin V1a receptor, > 30 µM; in test [3], > 30 µM. Moreover, the AC50 in test [4], in [5], in [6], in test [7] and in test [8] was > 30 µM throughout.

Regarding `N[C@@H]1[C@H]2CN(c3nc4c(cc3F)c(=O)c(C(=O)O)cn4-c3ccc(F)cc3F)C[C@@H]12` [TROVAFLOXACIN], the AC50 was > 300 µM at Bile salt export pump; > 30 µM at Adenosine receptor A3; > 30 µM in test [1]; > 30 µM in test [2]; > 30 µM on Vasopressin V1a receptor; > 30 µM in test [3]. For the same compound, the AC50 in test [4], in [5], in test [6], in test [7] and in test [8] was > 30 µM in each case.

Take `Nc1ccn([C@H]2CC[C@@H](CO)O2)c(=O)n1` [ZALCITABINE]: the AC50 at Bile salt export pump was > 300 µM; at Adenosine receptor A3, > 10 µM; in test [1] it was > 10 µM; in [2] it was > 10 µM; on Vasopressin V1a receptor, > 10 µM; in test [3], > 10 µM. Further, the concentration at half-maximal activity (AC50) is > 10 µM in [4]; > 10 µM in [5]; > 30 µM in test [6]; > 10 µM in test [7]; > 10 µM in test [8].

With `Cc1cn([C@H]2C[C@H](N=[N+]=[N-])[C@@H](CO)O2)c(=O)[nH]c1=O` [ZIDOVUDINE], the AC50 at Bile salt export pump was > 300 µM; at Adenosine receptor A3, > 30 µM; in [1], > 10 µM; in [2], > 10 µM; at Vasopressin V1a receptor, > 10 µM; in test [3] it was > 30 µM. Also, the AC50 in test [4] was > 10 µM; in [5], > 10 µM; in test [6], > 30 µM; in [7], > 10 µM; in [8], > 10 µM.

Regarding `NS(=O)(=O)Cc1noc2ccccc12` [ZONISAMIDE], the AC50 on Bile salt export pump is > 300 µM; at Adenosine receptor A3, > 10 µM; in [1], > 10 µM; in test [2], > 10 µM; on Vasopressin V1a receptor, > 10 µM; in test [3], > 10 µM. For the same compound, the AC50 in test [4] was > 10 µM; in [5], > 10 µM; in [6] it was > 30 µM; in test [7] it was > 10 µM; in test [8], > 10 µM.

The values are drawn from ChEMBL document CHEMBL5291721, “A preclinical secondary pharmacology resource illuminates target-adverse drug reaction associations of marketed drugs” (Nat Commun, 2023).
